From patent EP0726263A2, “Herbicidal (1,3,4)oxadiazoles and thiadiazoles” (American Cyanamid Company, priority 1995, dated 1996)

Assays:
Format in all cases: in vivo
Abutilon theophrasti [1] = test: Herbicidal activity, preemergence test; conditions: pre; sprayed onto soil, 800 g of active material per hectare; evaluated 3 weeks after treatment
Experimental: (§1) To evaluate their herbicidal activity, compounds according to the invention are tested using a representative range of plants: TRZAW Triticum aestivum HORVW Hordeum vulgare ZEAMX Zea mays GOSHI Gossypium hirsutum HELAN Helianthus annuus GLYMA Glycine max ALOMY Alopecurus myosuroides SETVI Setaria viridis ECHCG Echinochloa crus-galli GALAP Galium aparine STEME Stellaria media VERPE Veronica persica VIOAR Viola arvensis IPOHE Ipomoea hederacea LAMPU Lamium purpureum PAPRH Papaver rhoeas MATIN Matricaria inodora AMARE Amaranthus retroflexus ABUTH Abutilon theophrasti AMBEL Ambrosia artemisifolia CHEAL Chenopodium album
(§2) The tests fall into two categories, preemergence and postemergence. The preemergence tests involve spraying a liquid formulation of the compound onto the soil in which the seeds have recently been sown. The postemergence tests involve spraying a liquid formulation of the compound onto seedling plants.
(§3) The soil used in the tests is a prepared horticultural loam.
(§4) The formulations used in the tests are prepared from solutions of the test compounds in acetone containing 0.4% by weight of an alkylphenol/ethylene oxide condensate available under the trade mark TRITON X-155. These acetone solutions are diluted with water and the resulting formulations applied at dosage levels corresponding to 800 g of active material per hectare in a volume equivalent to 900 litres per hectare.
(§5) In the preemergence tests untreated sown soil and in the postemergence tests untreated soil bearing seedling plants are used as controls.
(§6) Results of herbicide evaluation are expressed on a rating scale (0-9). The scale is based upon a visual observation of plant stand, vigor, malformation, size, chlorosis, and general plant appearance as compared to a control. Preemergence and postemergence treatments are evaluated at 3 and 2 weeks after treatment, respectively.

Alopecurus myosuroides [2] = test: Herbicidal activity, preemergence test; conditions: pre; sprayed onto soil, 800 g of active material per hectare; evaluated 3 weeks after treatment
Experimental: as §1, §2, §3, §4, §5, §6

Amaranthus retroflexus [3] = test: Herbicidal activity, preemergence test; conditions: pre; sprayed onto soil, 800 g of active material per hectare; evaluated 3 weeks after treatment
Experimental: as §1, §2, §3, §4, §5, §6

Ambrosia artemisifolia [4] = test: Herbicidal activity, preemergence test; conditions: pre; sprayed onto soil, 800 g of active material per hectare; evaluated 3 weeks after treatment
Experimental: as §1, §2, §3, §4, §5, §6

Chenopodium album [5] = test: Herbicidal activity, preemergence test; conditions: pre; sprayed onto soil, 800 g of active material per hectare; evaluated 3 weeks after treatment
Experimental: as §1, §2, §3, §4, §5, §6

Galium aparine [6] = test: Herbicidal activity, preemergence test; conditions: pre; sprayed onto soil, 800 g of active material per hectare; evaluated 3 weeks after treatment
Experimental: as §1, §2, §3, §4, §5, §6

Glycine max [7] = test: Herbicidal activity, preemergence test; conditions: pre; sprayed onto soil, 800 g of active material per hectare; evaluated 3 weeks after treatment
Experimental: as §1, §2, §3, §4, §5, §6

Gossypium hirsutum [8] = test: Herbicidal activity, preemergence test; conditions: pre; sprayed onto soil, 800 g of active material per hectare; evaluated 3 weeks after treatment
Experimental: as §1, §2, §3, §4, §5, §6

Hordeum vulgare [9] = test: Herbicidal activity, preemergence test; conditions: pre; sprayed onto soil, 800 g of active material per hectare; evaluated 3 weeks after treatment
Experimental: as §1, §2, §3, §4, §5, §6

Ipomoea hederacea [10] = test: Herbicidal activity, preemergence test; conditions: pre; sprayed onto soil, 800 g of active material per hectare; evaluated 3 weeks after treatment
Experimental: as §1, §2, §3, §4, §5, §6

Lamium purpureum [11] = test: Herbicidal activity, preemergence test; conditions: pre; sprayed onto soil, 800 g of active material per hectare; evaluated 3 weeks after treatment
Experimental: as §1, §2, §3, §4, §5, §6

Matricaria inodora [12] = test: Herbicidal activity, preemergence test; conditions: pre; sprayed onto soil, 800 g of active material per hectare; evaluated 3 weeks after treatment
Experimental: as §1, §2, §3, §4, §5, §6

Papaver rhoeas [13] = test: Herbicidal activity, preemergence test; conditions: pre; sprayed onto soil, 800 g of active material per hectare; evaluated 3 weeks after treatment
Experimental: as §1, §2, §3, §4, §5, §6

Setaria viridis [14] = test: Herbicidal activity, preemergence test; conditions: pre; sprayed onto soil, 800 g of active material per hectare; evaluated 3 weeks after treatment
Experimental: as §1, §2, §3, §4, §5, §6

Stellaria media [15] = test: Herbicidal activity, preemergence test; conditions: pre; sprayed onto soil, 800 g of active material per hectare; evaluated 3 weeks after treatment
Experimental: as §1, §2, §3, §4, §5, §6

Triticum aestivum [16] = test: Herbicidal activity, preemergence test; conditions: pre; sprayed onto soil, 800 g of active material per hectare; evaluated 3 weeks after treatment
Experimental: as §1, §2, §3, §4, §5, §6

Veronica persica [17] = test: Herbicidal activity, preemergence test; conditions: pre; sprayed onto soil, 800 g of active material per hectare; evaluated 3 weeks after treatment
Experimental: as §1, §2, §3, §4, §5, §6

Zea mays [18] = test: Herbicidal activity, preemergence test; conditions: pre; sprayed onto soil, 800 g of active material per hectare; evaluated 3 weeks after treatment
Experimental: as §1, §2, §3, §4, §5, §6

Abutilon theophrasti [19] = test: Herbicidal activity, postemergence test; conditions: post; sprayed onto seedling plants, 800 g of active material per hectare; evaluated 2 weeks after treatment
Experimental: as §1, §2, §3, §4, §5, §6

Alopecurus myosuroides [20] = test: Herbicidal activity, postemergence test; conditions: post; sprayed onto seedling plants, 800 g of active material per hectare; evaluated 2 weeks after treatment
Experimental: as §1, §2, §3, §4, §5, §6

Amaranthus retroflexus [21] = test: Herbicidal activity, postemergence test; conditions: post; sprayed onto seedling plants, 800 g of active material per hectare; evaluated 2 weeks after treatment
Experimental: as §1, §2, §3, §4, §5, §6

Ambrosia artemisifolia [22] = test: Herbicidal activity, postemergence test; conditions: post; sprayed onto seedling plants, 800 g of active material per hectare; evaluated 2 weeks after treatment
Experimental: as §1, §2, §3, §4, §5, §6

Chenopodium album [23] = test: Herbicidal activity, postemergence test; conditions: post; sprayed onto seedling plants, 800 g of active material per hectare; evaluated 2 weeks after treatment
Experimental: as §1, §2, §3, §4, §5, §6

Galium aparine [24] = test: Herbicidal activity, postemergence test; conditions: post; sprayed onto seedling plants, 800 g of active material per hectare; evaluated 2 weeks after treatment
Experimental: as §1, §2, §3, §4, §5, §6

Glycine max [25] = test: Herbicidal activity, postemergence test; conditions: post; sprayed onto seedling plants, 800 g of active material per hectare; evaluated 2 weeks after treatment
Experimental: as §1, §2, §3, §4, §5, §6

Gossypium hirsutum [26] = test: Herbicidal activity, postemergence test; conditions: post; sprayed onto seedling plants, 800 g of active material per hectare; evaluated 2 weeks after treatment
Experimental: as §1, §2, §3, §4, §5, §6

Hordeum vulgare [27] = test: Herbicidal activity, postemergence test; conditions: post; sprayed onto seedling plants, 800 g of active material per hectare; evaluated 2 weeks after treatment
Experimental: as §1, §2, §3, §4, §5, §6

Ipomoea hederacea [28] = test: Herbicidal activity, postemergence test; conditions: post; sprayed onto seedling plants, 800 g of active material per hectare; evaluated 2 weeks after treatment
Experimental: as §1, §2, §3, §4, §5, §6

Lamium purpureum [29] = test: Herbicidal activity, postemergence test; conditions: post; sprayed onto seedling plants, 800 g of active material per hectare; evaluated 2 weeks after treatment
Experimental: as §1, §2, §3, §4, §5, §6

Matricaria inodora [30] = test: Herbicidal activity, postemergence test; conditions: post; sprayed onto seedling plants, 800 g of active material per hectare; evaluated 2 weeks after treatment
Experimental: as §1, §2, §3, §4, §5, §6

Papaver rhoeas [31] = test: Herbicidal activity, postemergence test; conditions: post; sprayed onto seedling plants, 800 g of active material per hectare; evaluated 2 weeks after treatment
Experimental: as §1, §2, §3, §4, §5, §6

Setaria viridis [32] = test: Herbicidal activity, postemergence test; conditions: post; sprayed onto seedling plants, 800 g of active material per hectare; evaluated 2 weeks after treatment
Experimental: as §1, §2, §3, §4, §5, §6

Stellaria media [33] = test: Herbicidal activity, postemergence test; conditions: post; sprayed onto seedling plants, 800 g of active material per hectare; evaluated 2 weeks after treatment
Experimental: as §1, §2, §3, §4, §5, §6

Triticum aestivum [34] = test: Herbicidal activity, postemergence test; conditions: post; sprayed onto seedling plants, 800 g of active material per hectare; evaluated 2 weeks after treatment
Experimental: as §1, §2, §3, §4, §5, §6

Veronica persica [35] = test: Herbicidal activity, postemergence test; conditions: post; sprayed onto seedling plants, 800 g of active material per hectare; evaluated 2 weeks after treatment
Experimental: as §1, §2, §3, §4, §5, §6

Zea mays [36] = test: Herbicidal activity, postemergence test; conditions: post; sprayed onto seedling plants, 800 g of active material per hectare; evaluated 2 weeks after treatment
Experimental: as §1, §2, §3, §4, §5, §6

C[C@H](NC(=O)c1nnc(-c2ccccc2F)o1)c1ccccc1 [Example 10]
ABUTH control rating (0-9) (Abutilon theophrasti [1]): 0 (no effect) | ALOMY control rating (0-9) (Alopecurus myosuroides [2]): 1 (trace effect) | AMARE control rating (0-9) (Amaranthus retroflexus [3]): 8 (approaching complete kill) | AMBEL control rating (0-9) (Ambrosia artemisifolia [4]): 3 (moderate effect) | CHEAL control rating (0-9) (Chenopodium album [5]): 8 (approaching complete kill) | GALAP control rating (0-9) (Galium aparine [6]): 0 (no effect) | GLXMA control rating (0-9) (Glycine max [7]): 2 (slight effect) | GOSHI control rating (0-9) (Gossypium hirsutum [8]): 0 (no effect) | HORVW control rating (0-9) (Hordeum vulgare [9]): 0 (no effect) | IPOHE control rating (0-9) (Ipomoea hederacea [10]): 0 (no effect) | LAMPU control rating (0-9) (Lamium purpureum [11]): 8 (approaching complete kill) | MATIN control rating (0-9) (Matricaria inodora [12]): 8 (approaching complete kill) | PAPRH control rating (0-9) (Papaver rhoeas [13]): 9 (complete kill) | SETVI control rating (0-9) (Setaria viridis [14]): 3 (moderate effect) | STEME control rating (0-9) (Stellaria media [15]): 9 (complete kill) | TRZAW control rating (0-9) (Triticum aestivum [16]): 0 (no effect) | VERPE control rating (0-9) (Veronica persica [17]): 9 (complete kill) | ZEAMX control rating (0-9) (Zea mays [18]): 0 (no effect) | ABUTH control rating (0-9) (Abutilon theophrasti [19]): 9 (complete kill) | ALOMY control rating (0-9) (Alopecurus myosuroides [20]): 0 (no effect) | AMARE control rating (0-9) (Amaranthus retroflexus [21]): 9 (complete kill) | AMBEL control rating (0-9) (Ambrosia artemisifolia [22]): 7 (good herbicidal effect) | CHEAL control rating (0-9) (Chenopodium album [23]): 7 (good herbicidal effect) | GALAP control rating (0-9) (Galium aparine [24]): 6 (herbicidal effect) | GLXMA control rating (0-9) (Glycine max [25]): 4 (injury) | GOSHI control rating (0-9) (Gossypium hirsutum [26]): 8 (approaching complete kill) | HORVW control rating (0-9) (Hordeum vulgare [27]): 4 (injury) | IPOHE control rating (0-9) (Ipomoea hederacea [28]): 8 (approaching complete kill) | LAMPU control rating (0-9) (Lamium purpureum [29]): 8 (approaching complete kill) | MATIN control rating (0-9) (Matricaria inodora [30]): 0 (no effect) | PAPRH control rating (0-9) (Papaver rhoeas [31]): 8 (approaching complete kill) | SETVI control rating (0-9) (Setaria viridis [32]): 9 (complete kill) | STEME control rating (0-9) (Stellaria media [33]): 9 (complete kill) | TRZAW control rating (0-9) (Triticum aestivum [34]): 2 (slight effect) | VERPE control rating (0-9) (Veronica persica [35]): 9 (complete kill) | ZEAMX control rating (0-9) (Zea mays [36]): 3 (moderate effect)
